Test system: converting enzyme (enzyme for conversion of angiotensin I to angiotensin II)
Test: Inhibition of the converting enzyme (angiotensin I / angiotensin II pressor response) after oral administration to unanesthetized dogs
Format: in vivo
Details: 1 mg/kg
Description: The compound of the invention for which E=H was tested by oral administration on unanesthetized dogs. The arterial blood pressure of the dogs was measured with a pressure gauge ("Statham P23 Db") after catheterization of the aorta via the femoral artery. The recording is carried out with a recording apparatus ("Brush 400"). Angiotensin I and angiotensin II are injected into the animals intravenously at doses of 0.5 and 0.10 γ/kg, respectively. A dose/activity curve is established for each of these hormones. The compound according to the invention for which E=H is then administered orally at a dose of 1 mg/kg. A second dose/activity curve is then established for angiotensin I and for angiotensin II after administration of the test product.

## Cl.NCCCC[C@H](N[C@@H](CCc1ccccc1)C(=O)O)C(=O)N1C2CCC(CC2)[C@H]1C(=O)O [compound of the invention for which E=H, (3S)-2-{(S)-N-[(S)-1-carboxy-3-phenylpropyl]lysyl}-3-carboxy-2-azabicyclo[2.2.2]octane hydrochloride]
15 minutes after administration
  percentage inhibition of the converting enzyme: 80%
30 minutes after administration
  percentage inhibition of the converting enzyme: ~100%
6 hours after administration
  percentage inhibition of the converting enzyme: greater than 70%

— patent US4959372A, “Anti-hypertensive substituted 2-azabicyclooctane-3-carboxylic acids” (Adir et lie, priority 1987, dated 1990)
